The values that follow come from patent US20140088052A1, “CHALCONE DERIVATIVES AS NRF2 ACTIVATORS” (THE JOHNS HOPKINS UNIVERSITY, priority 2011, published 2014).

SMILES strings stand for the structures.

For one data set, the system named is Beas-2B cells. As to the kind of experiment: Cell viability / cytotoxicity (MTT assay) in Beas-2B cells. The settings on record: 24 h, DMSO = 100. The class given is cell-based, human. As for the experimental part: Concurrent with the gene expression analysis, the cytotoxicity of the chalcone derivatives was determined using the MTT assay.
Mad. Chem. 2007, 15, 2952-2962. […] Four hours before the end of incubation, the medium was removed and 100 μL of MTT (5 mg/mL in serum free medium) was added to each well. The MTT was removed after 4 h, cells were washed with PBS, and 100 μL DMSO was added to each well to dissolve the water-insoluble MTT-formazan crystals. The absorbance was recorded at 570 nm in a plate reader (Molecular Devices, Sunnyvale, Calif.).

For data set [1], the system named is Nrf2. As to the kind of experiment: Concentration and time-course studies of Nrf2-driven antioxidant genes in Beas-2B cells. The class given is cell-based, human. As for the experimental part:
The expression of Nrf2-regulated genes GCLM, HO1, and NQO1 was analyzed in the tissues by qRT-PCT as a surrogate marker of Nrf2 activity. β-actin was used for normalization. Data are representative of three independent experiments. […] The expression of Nrf2-regulated genes GCLM, HO1, and NQO1 was analyzed in the tissues by aRT-PCR. β-actin was used for normalization. Data are representative of three independent experiments. Values shown are mean±SD of triplicate wells (P≦0.05); […] […] Total RNA was extracted from cells/tissue using Qiagen RNeasy kit (Qiagen Corporation, Valencia, Calif.) and reverse transcription was performed by using random hexamers and MultiScribe reverse transcriptase according to the manufacturer's recommendations (Applied Biosystems, Foster City, Calif., USA). Quantitative real-time RT-PCR analyses of Nrf2, NQO1, HO1, and GCLM were performed by using Assay-on-Demand primers and probe sets from Applied Biosystems. Assays were performed using the ABI 7000 Taqman system (Applied Biosystems, Foster City, Calif.). β-actin was used for normalization.

For data set [2], the system named is Nrf2. Nature of the data set: Nrf2-regulated gene expression with or without N-acetyl-cysteine in Beas-2B cells. The class given is cell-based, human. The settings on record: 10 μM with NAC 10 mM, 24 h. As for the experimental part:
Cells were harvested 24 h after the treatment and the Nrf2-driven expression of NQO1, HO-1, and GCLM was quantified. β-actin was used for normalization. Data are representative of three independent experiments. Values shown are mean±SD of triplicate wells (P≦0.05);
The activation of Nrf2 by various electrophiles and compounds that are Michael acceptors is attributed to changes in ROS production and or redox environment and or direct cysteine modification in Keap1. Nguyen, T., et al., The Nrf2-antioxidant response element signaling pathway and its activation by oxidative stress. J. Biol. Chem. 2009, 284, 13291-13295; McMahon, M., et al., Keap1 perceives stress via three sensors for the endogenous signaling molecules nitric oxide, zinc, and alkenals. Proc. Natl. Acad. Sci. U.S.A. 2010, 107, 18838-18843. Whether 2b activates Nrf2 by generating ROS or redox changes also was examined.

Data set [3] deals with mice subjected to total body irradiation (TBI). Nature of the data set: Survival of mice after total body irradiation. Conditions: 5 more doses every 48 h; for survival: 30 days. The class given is in vivo, mice (C57BL/6). As for the experimental part: To determine whether 2-trifluoromethyl-2′-methoxychalone, a potent Nrf2 activator, improves survival after lethal irradiation, irradiated mice were treated with 2-trifluoromethyl-2′-methoxychalone (200 μmol/kg body weight) or vehicle (100% PEG) by gavage. […] (LD70/30; 70% death in 30 days).
To investigate the therapeutic efficacy of compound 2b to mitigate mortality and the hematopoietic syndrome, mice were subjected to total body irradiation (TBI). C57BL/6 (8 wks, males,) were fed chow pellets ad libitum and supplied non-acidic water. Mice were subjected to TBI (0.65 Gy/min) in an AECL Gamma cell 40 irradiator (Atomic Energy, Canada).
Mortality was monitored every day for 30 days.
Mortality was monitored every day for 30 days. […] The percent mortality of mice treated with the vehicle at 1 h or 6 h after radiation was 100% (data not shown).

The test system of a further data set is hematopoietic stem cells. Nature of the data set: Bone marrow mononuclear cells and hematopoietic stem cells in irradiated mice. The class given is in vivo. The settings on record: 6.9Gy, single dose 24 h after irradiation, compared to vehicle.
Data set [4] deals with chemotherapy-induced neutropenia. As to the kind of experiment: Cyclophosphamide-induced reversible neutropenia in mice. The class given is in vivo. The settings on record: cyclophosphamide i.p. day 0 and day 5, treatment every 48 h, compared to vehicle. As for the experimental part:
At indicated time periods, a cohort of mice was sacrificed. Peripheral blood was collected and differential blood cell count was analyzed using a Hemavet 950S.

The subject of another data set is OVA-induced asthma. As to the kind of experiment: OVA-induced asthma mouse model. Set-up: dose or concentration left out as unconfirmed. The settings on record: mice, every other day during sensitization and challenge, prophylactic mode. Format: in vivo. As for the experimental part:
Mice were sensitized by intraperitoneal injection (day 0, day 14), and challenged intranasally, with OVA (day 21 to day 24). […] 24 h after the last dose of OVA challenge, airway inflammation (FIG. 16A) and airway hyperresponsiveness (AHR) (FIG. 16B) were assessed.

The test system of data set [5] is LPS-induced TNF-α secretion. Nature of the data set: LPS-induced TNF-α secretion by mouse peritoneal macrophages. Format: cell-based, mice. Conditions: 5 μM or 10 μM for 16-20 h, LPS 100 ng/mL 4 h, compared to vehicle. As for the experimental part:
After 4 h, TNF-α secretion in cell-free media by macrophages was analyzed by ELISA.

[6] abbreviates: Beas-2B cells, 10 μM, 6 h after treatment.

Take `COc1ccccc1C(=O)/C=C/c1ccccc1C(F)(F)F` [Compound 2b, (E)-1-(2-methoxyphenyl)-3-(2-(trifluoromethyl)phenyl)prop-2-en-1-one]: the “% Cell Viability” value in the data set on Beas-2B cells was found to be 100.9%. In addition, the “expression of HO-1 compared to sulforaphane” value with Nrf2 [1] (Beas-2B cells, 10 μM) was found to be 6 fold. Further, the “expression of NQO1 over time” value in the data set on Nrf2 [1] (Beas-2B cells, 10 μM, 6, 12, 24 and 48 h) was “highest at 24 h and remained significantly elevated even at 48 h”. In the data set with Nrf2 [1] (setting [6]), the “highest induction of GCLM” value is listed as “approximately 7 fold”. In the data set on Nrf2 [1] (setting [6]), the “highest induction of HO-1” value was “approximately 150 fold”. For the same compound, the “expression of GCLM and HO-1 at 48 h” value in the data set with Nrf2 [1] (Beas-2B cells, 10 μM, 48 h) was “comparable to vehicle by 48 h”. Besides, the “increase in the expression of GCLM” value in the data set on Nrf2 [1] (Beas-2B cells, 20 μM, 24 h) was “approximately 5 fold”. Moreover, the “increase in the expression of NQO1” value in the data set on Nrf2 [1] (Beas-2B cells, 20 μM, 24 h) is given as ~10 fold. Also, the “Nrf2-regulated gene expression (GCLM, NQO1, HO1)” value in the data set with Nrf2 [1] (Beas-2B cells, 2.5, 5, 10, 20 μM, 24 h) is given as “significantly increased the Nrf2-regulated gene expression in a concentration-dependent manner”. Also, in the data set on Nrf2 [2], the “expression of GCLM, NQO1 and HO1 in the presence of NAC” value was “potentially increase the expression of Nr2-regulated antioxidant genes in the presence of NAC”. In addition, the median survival in data set [3] (7.3 Gy TBI, treatment started 24 hours after irradiation, 200 μmol/kg by gavage, vehicle approximately 15 days) came out at 26 days. For the same compound, the survival in data set [3] (TBI 6.9 Gy, oral 400 mg/Kg started 24 h after TBI) is 90%; in data set [3] (TBI 7.1 Gy, oral 400 mg/Kg started 24 h after TBI) it was 60%; in data set [3] (TBI 7.3 Gy, oral treatment started 1 h after TBI), “approximately 60%”; in data set [3] (TBI 7.3 Gy, oral treatment started 6 h after TBI), ~50%. For the same compound, the “total BM-MNC per limb and total HSPC, HSC and MPP” value with hematopoietic stem cells (analysed 24 h after treatment) is on record as “significantly higher”. In the data set on hematopoietic stem cells, the “viable hematopoietic stem cells (colony forming cells assay)” value is recorded as “increased number of hematopoietic stem cells”. Besides, the duration of neutropenia result in data set [4] is “significantly reduced the duration of neutropenia”. Besides, in the data set on OVA-induced asthma, the “allergen-induced asthma (airway inflammation and airway hyper-responsiveness)” value is reported as “protected the mice from allergen-induced asthma”. For the same compound, the “LPS-induced TNF-α secretion by macrophages (ELISA)” value in data set [5] is “significant decrease in LPS-induced TNF-α secretion”.
